Measured values as given in patent US8883749B2, “Transcription factor inhibitors and related compositions, formulations and methods” (The Ohio State University, priority 2009, dated 2014).
Where two headings read alike, the source gives them in different places.

How the values were obtained:
U373 glioblastoma cells = assay: MTT cell viability assay; type: cell-based, human; settings: 72 hours, 10% FBS, read-out: half-maximal inhibitory concentration (IC50), cell viability
Procedure: (§1) STAT3 activation is important for tumor cell proliferation and survival.
(§2) The cells were incubated at 37° C. for a period of 72 hours. 3-(4,5-Dimethylthiazolyl)-2,5-diphenyltetrazolium bromide (MTT) viability assay was done according to manufacturer's protocol (Roche Diagnostics, Mannheim, Germany). […] Half-maximal inhibitory concentrations (IC50) were determined using Sigma Plot 9.0 Software (Systat Software Inc., San Jose, Calif.).

[1] = test system: PANC-1 pancreatic cancer cells; assay: MTT cell viability assay; type: cell-based, human; settings: PANC-1, MTT, 72 hours, 10% FBS, read-out: half-maximal inhibitory concentration (IC50), cell viability
Procedure: as §1, §2

[2] = test system: HPAC pancreatic cancer cells; assay: MTT cell viability assay; type: cell-based, human; settings: 72 hours, 10% FBS, read-out: half-maximal inhibitory concentration (IC50), cell viability
Procedure: as §1, §2

[3] = test system: SK-BR-3 breast cancer cells; assay: MTT cell viability assay; type: cell-based, human; settings: SK-BR-3, MTT, 72 hours, 10% FBS, read-out: half-maximal inhibitory concentration (IC50), cell viability
Procedure: as §1, §2

[4] = test system: MDA-MB-231 breast cancer cells; assay: MTT cell viability assay; type: cell-based, human; settings: MDA-MB-231, MTT, 72 hours, 10% FBS, read-out: half-maximal inhibitory concentration (IC50), cell viability
Procedure: as §1, §2

[5] = test system: ALDH^+ subpopulation of SK-BR-3, MDA-MB-231, and SUM159; assay: Tumorsphere culture of ALDH+ cells; type: cell-based, human; settings: 2.5-10 μmol/L, 10 to 15 days
Procedure: Tumorsphere culture was performed as previously described (4). ALDH^+ and ALDH^+/CD44^+/CD24^− cells were plated as single cells in ultra-low attachment six-well plates at a density of 50,000 viable cells/well. […] Tumorsphere growth was observed under a microscope 10 to 15 days later.

[6] = test system: ALDH^+ subpopulation of MDA-MB-231, SUM159, and SK-BR-3 breast cancer cells; assay: ALDEFLUOR assay, percentage of ALDH+ subpopulation; type: cell-based, human; settings: 10 μM, 24 hours
Description: The ALDEFLUOR kit (StemCell Technologies) was used to isolate the population with high ALDH enzymatic activity as known. […] For each sample, an aliquot of cells was stained under identical conditions with […] diethylaminobenzaldehyde (DEAB), a specific ALDH inhibitor, as a ALDH^− control. Anti-human PE-CD24 and PE-Cy5-CD44 antibody (BioLegend) were used for CD44/CD24 identification and to separate ALDH^+/CD44^+/CD24^− and ALDH^−/CD44^+/CD24^+ cells when combine with ALDH staining. Analysis was performed using a FACStarPLUS (Becton Dickinion) flow cytometer.

[7] = test system: ALDH^+ subpopulation of MDA-MB-231, SUM159, and SK-BR3 cells; assay: MTT cell viability assay of ALDH+ cells; type: cell-based, human; settings: 1 to 10 μmol/L, 72 hours
Procedure: The ALDH^+ subpopulation of breast cancer cells was seeded in 96-well plates (3,000 cells/well) in triplicates in a serum-free mammary epithelial basal medium. […] MTT (Thiazolyl Blue Tetrazolium Bromide, Sigma-Aldrich) assay was used to determine the cell viability.

ALDH^− cells = assay: Effects on ALDH- cells; type: cell-based, human
[8] = target: STAT3 phosphorylation in ALDH^+ subpopulation of MDA-MB-231, SUM159, and SK-BR-3 (Homo sapiens, UniProt P40763); assay: Western blot of ALDH+ cells; type: cell-based; settings: LLL12 5 μmol/L, 24 hours
Procedure: ALDH^+ and ALDH^- subpopulations, or ALDH^+/CD44^+/CD24^- and ALDH^-/CD44^+/CD24^+ subpopulations of breast cancer cells were separated by flow cytometer. After sorting, ALDH^+ and ALDH^+/CD44^+/CD24^- stem cells were cultured in serum-free stem cell medium in ultra-low attachment six-well plates (Corning) to maintain cancer stem cell characteristics. ALDH^-, ALDH^-/CD44^+/CD24^+ cells and unseperated cells were cultured in regular medium and replaced with identical stem cell medium for three days before being harvested.

CDK6/CyclinD1 = target: T1, CDK6/CyclinD1 (Homo sapiens, UniProt Q00534); assay: Kinase profiler assay; type: biochemical; settings: 10 concentrations, 100 μM highest
T1 construct: purchased Millipore UK Limited (Dundee, UK) or Reaction Biology Corp. (Malvern, Pa.)

PAK1 = target: T2, PAK1 (Homo sapiens, UniProt Q13153); assay: Kinase profiler assay; type: biochemical; settings: 10 concentrations, 100 μM highest
T2 construct: purchased Millipore UK Limited (Dundee, UK) or Reaction Biology Corp. (Malvern, Pa.)

c-SRC = target: T3, c-SRC (Homo sapiens, UniProt P12931); assay: Kinase profiler assay; type: biochemical; settings: 10 concentrations, 100 μM highest
T3 construct: purchased Millipore UK Limited (Dundee, UK) or Reaction Biology Corp. (Malvern, Pa.)
T3 sequence (P12931 whole entry): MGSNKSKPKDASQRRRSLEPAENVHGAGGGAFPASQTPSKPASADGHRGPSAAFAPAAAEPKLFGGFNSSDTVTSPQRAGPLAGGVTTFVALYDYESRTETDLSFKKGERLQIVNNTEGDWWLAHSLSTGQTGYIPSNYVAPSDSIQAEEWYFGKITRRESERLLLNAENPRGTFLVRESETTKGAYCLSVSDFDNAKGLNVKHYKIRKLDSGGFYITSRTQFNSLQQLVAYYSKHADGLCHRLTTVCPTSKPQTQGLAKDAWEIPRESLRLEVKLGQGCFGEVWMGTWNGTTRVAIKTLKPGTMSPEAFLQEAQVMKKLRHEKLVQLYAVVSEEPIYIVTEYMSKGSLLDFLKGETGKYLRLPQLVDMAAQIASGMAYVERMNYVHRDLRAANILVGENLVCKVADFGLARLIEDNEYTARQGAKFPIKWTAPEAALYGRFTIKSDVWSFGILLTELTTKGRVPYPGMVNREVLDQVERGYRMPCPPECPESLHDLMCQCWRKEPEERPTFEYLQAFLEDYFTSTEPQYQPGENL

Syk = target: T4, Syk (Homo sapiens, UniProt P43405); assay: Kinase profiler assay; type: biochemical; settings: 10 concentrations, 100 μM highest
T4 construct: purchased Millipore UK Limited (Dundee, UK) or Reaction Biology Corp. (Malvern, Pa.)

mTOR = target: T5, mTOR (Homo sapiens, UniProt P42345); assay: Kinase profiler assay; type: biochemical; settings: 10 concentrations, 100 μM highest
T5 construct: purchased Millipore UK Limited (Dundee, UK) or Reaction Biology Corp. (Malvern, Pa.)

Met = target: T6, Met (Homo sapiens, UniProt P08581); assay: Kinase profiler assay; type: biochemical; settings: 10 concentrations, 100 μM highest
T6 construct: purchased Millipore UK Limited (Dundee, UK) or Reaction Biology Corp. (Malvern, Pa.)

P13K (P110b/85a) = target: T7, P13K (P110b/85a) (Homo sapiens, UniProt P42338); assay: Kinase profiler assay; type: biochemical; settings: 10 concentrations, 100 μM highest
T7 construct: purchased Millipore UK Limited (Dundee, UK) or Reaction Biology Corp. (Malvern, Pa.)

P13K (P110a/85a) = target: T8, P13K (P110a/85a) (Homo sapiens, UniProt P42336); assay: Kinase profiler assay; type: biochemical; settings: 10 concentrations, 100 μM highest
T8 construct: purchased Millipore UK Limited (Dundee, UK) or Reaction Biology Corp. (Malvern, Pa.)
T8 sequence (P42336 whole entry, stated change not applied): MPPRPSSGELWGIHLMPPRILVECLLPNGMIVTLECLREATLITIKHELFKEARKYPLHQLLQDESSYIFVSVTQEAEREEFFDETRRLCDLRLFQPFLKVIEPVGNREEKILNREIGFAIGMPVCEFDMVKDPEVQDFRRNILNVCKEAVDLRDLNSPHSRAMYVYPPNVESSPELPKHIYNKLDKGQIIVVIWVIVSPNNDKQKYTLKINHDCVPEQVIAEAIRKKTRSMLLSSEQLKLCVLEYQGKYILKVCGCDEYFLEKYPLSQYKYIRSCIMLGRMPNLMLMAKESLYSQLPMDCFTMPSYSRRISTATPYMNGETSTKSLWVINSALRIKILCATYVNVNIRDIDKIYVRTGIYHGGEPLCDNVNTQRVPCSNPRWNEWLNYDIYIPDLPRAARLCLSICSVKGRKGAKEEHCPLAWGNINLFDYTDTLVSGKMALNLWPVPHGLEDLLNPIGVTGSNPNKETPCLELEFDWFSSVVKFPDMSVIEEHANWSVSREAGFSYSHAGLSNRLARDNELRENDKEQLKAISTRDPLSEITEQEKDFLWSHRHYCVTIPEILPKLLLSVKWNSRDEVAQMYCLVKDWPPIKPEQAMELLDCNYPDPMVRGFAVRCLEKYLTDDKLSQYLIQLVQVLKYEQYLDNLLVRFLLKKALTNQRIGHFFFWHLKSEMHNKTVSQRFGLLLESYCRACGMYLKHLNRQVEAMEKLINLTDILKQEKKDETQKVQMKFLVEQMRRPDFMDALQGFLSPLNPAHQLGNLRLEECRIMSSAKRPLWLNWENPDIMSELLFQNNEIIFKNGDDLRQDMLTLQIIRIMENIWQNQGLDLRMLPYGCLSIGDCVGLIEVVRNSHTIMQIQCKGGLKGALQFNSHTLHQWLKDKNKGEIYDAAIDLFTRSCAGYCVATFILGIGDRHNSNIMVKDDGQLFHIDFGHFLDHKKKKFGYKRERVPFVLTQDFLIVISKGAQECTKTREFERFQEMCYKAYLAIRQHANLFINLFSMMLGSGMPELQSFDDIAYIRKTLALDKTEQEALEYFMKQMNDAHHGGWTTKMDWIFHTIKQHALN
T8 sequence (P27986 2-724 partner): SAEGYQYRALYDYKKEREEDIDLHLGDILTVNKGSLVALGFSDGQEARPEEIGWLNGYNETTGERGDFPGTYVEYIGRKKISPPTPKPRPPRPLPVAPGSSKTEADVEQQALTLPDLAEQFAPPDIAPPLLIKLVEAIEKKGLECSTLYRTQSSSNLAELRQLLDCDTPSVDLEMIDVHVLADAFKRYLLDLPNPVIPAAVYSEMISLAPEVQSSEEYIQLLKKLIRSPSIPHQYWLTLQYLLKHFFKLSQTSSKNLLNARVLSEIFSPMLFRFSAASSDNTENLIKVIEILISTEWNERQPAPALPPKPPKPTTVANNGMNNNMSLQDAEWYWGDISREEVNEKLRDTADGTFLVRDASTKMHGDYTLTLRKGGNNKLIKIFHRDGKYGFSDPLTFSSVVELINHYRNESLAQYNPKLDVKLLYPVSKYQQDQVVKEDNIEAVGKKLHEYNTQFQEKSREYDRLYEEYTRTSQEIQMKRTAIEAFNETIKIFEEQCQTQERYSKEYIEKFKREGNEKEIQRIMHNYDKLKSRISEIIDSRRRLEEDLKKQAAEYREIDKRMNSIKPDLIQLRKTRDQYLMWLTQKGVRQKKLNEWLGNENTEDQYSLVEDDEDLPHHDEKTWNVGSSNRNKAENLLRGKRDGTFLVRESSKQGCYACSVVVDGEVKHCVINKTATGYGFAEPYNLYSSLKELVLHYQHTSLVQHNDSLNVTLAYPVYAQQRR

C-Kit = target: T9, C-Kit (Homo sapiens, UniProt P10721); assay: Kinase profiler assay; type: biochemical; settings: 10 concentrations, 100 μM highest
T9 construct: purchased Millipore UK Limited (Dundee, UK) or Reaction Biology Corp. (Malvern, Pa.)
T9 sequence (P10721 26-976): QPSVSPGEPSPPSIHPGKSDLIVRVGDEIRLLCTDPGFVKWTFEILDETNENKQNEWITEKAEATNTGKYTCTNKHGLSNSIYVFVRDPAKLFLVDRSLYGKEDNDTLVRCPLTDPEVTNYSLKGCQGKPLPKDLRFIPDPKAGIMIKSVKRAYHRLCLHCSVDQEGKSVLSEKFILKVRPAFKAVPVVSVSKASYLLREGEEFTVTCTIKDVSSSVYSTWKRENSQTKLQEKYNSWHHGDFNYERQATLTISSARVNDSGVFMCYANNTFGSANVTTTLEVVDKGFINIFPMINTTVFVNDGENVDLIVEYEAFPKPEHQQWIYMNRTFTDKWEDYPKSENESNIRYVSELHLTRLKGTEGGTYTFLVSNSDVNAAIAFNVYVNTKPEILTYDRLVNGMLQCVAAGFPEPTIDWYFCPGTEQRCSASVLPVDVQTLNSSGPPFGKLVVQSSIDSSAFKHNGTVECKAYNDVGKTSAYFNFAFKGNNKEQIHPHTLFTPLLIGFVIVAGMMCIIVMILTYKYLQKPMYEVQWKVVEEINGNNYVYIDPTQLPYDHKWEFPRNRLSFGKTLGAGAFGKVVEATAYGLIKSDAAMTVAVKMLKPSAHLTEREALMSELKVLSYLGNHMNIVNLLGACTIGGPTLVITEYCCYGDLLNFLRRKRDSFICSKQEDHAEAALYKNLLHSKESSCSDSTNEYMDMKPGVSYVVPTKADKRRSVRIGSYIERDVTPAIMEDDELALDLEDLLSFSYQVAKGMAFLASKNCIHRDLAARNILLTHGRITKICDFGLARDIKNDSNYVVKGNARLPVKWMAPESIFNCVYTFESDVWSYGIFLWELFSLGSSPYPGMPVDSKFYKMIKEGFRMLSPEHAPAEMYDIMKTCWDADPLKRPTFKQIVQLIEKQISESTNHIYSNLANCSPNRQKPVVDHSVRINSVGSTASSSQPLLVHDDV

CHK1 = target: T10, CHK1 (Homo sapiens, UniProt O14757); assay: Kinase profiler assay; type: biochemical; settings: 10 concentrations, 100 μM highest
T10 construct: purchased Millipore UK Limited (Dundee, UK) or Reaction Biology Corp. (Malvern, Pa.)

PDK1 = target: T11, PDK1 (Homo sapiens, UniProt O15530); assay: Kinase profiler assay; type: biochemical; settings: 10 concentrations, 100 μM highest
T11 construct: purchased Millipore UK Limited (Dundee, UK) or Reaction Biology Corp. (Malvern, Pa.)
T11 sequence (O15530 whole entry): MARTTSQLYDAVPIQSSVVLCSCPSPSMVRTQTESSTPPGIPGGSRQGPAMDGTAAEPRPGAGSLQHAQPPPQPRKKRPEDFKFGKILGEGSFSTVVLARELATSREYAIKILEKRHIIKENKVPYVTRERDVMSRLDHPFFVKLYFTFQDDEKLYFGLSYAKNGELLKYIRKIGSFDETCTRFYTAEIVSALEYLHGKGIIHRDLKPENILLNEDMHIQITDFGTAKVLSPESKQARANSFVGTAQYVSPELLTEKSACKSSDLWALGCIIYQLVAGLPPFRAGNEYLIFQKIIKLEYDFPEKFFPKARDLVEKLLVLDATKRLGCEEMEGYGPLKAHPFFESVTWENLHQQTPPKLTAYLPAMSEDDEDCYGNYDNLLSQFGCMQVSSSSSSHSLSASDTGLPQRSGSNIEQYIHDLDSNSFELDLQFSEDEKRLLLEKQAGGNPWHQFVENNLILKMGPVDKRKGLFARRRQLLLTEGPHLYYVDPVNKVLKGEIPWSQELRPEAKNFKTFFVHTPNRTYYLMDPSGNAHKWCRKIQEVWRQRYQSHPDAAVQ

AKT1 = target: T12, AKT1 (Homo sapiens, UniProt P31749); assay: Kinase profiler assay; type: biochemical; settings: 10 concentrations, 100 μM highest
T12 construct: purchased Millipore UK Limited (Dundee, UK) or Reaction Biology Corp. (Malvern, Pa.)

Erb B2/H ER2 = target: T13, Erb B2/H ER2 (Homo sapiens, UniProt P04626); assay: Kinase profiler assay; type: biochemical; settings: 10 concentrations, 100 μM highest
T13 construct: purchased Millipore UK Limited (Dundee, UK) or Reaction Biology Corp. (Malvern, Pa.)

CDK4/CyclinD1 = target: T14, CDK4/CyclinD1 (Homo sapiens, UniProt P11802); assay: Kinase profiler assay; type: biochemical; settings: 10 concentrations, 100 μM highest
T14 construct: purchased Millipore UK Limited (Dundee, UK) or Reaction Biology Corp. (Malvern, Pa.)

Pyk2 = target: T15, Pyk2 (Homo sapiens, UniProt Q14289); assay: Kinase profiler assay; type: biochemical; settings: 10 concentrations, 100 μM highest
T15 construct: purchased Millipore UK Limited (Dundee, UK) or Reaction Biology Corp. (Malvern, Pa.)

MDA-MB-231 cells = assay: Soft agar colony formation assay; type: cell-based, human; settings: LLL12 1 μM or 5 μM, two weeks
Procedure: A base 0.6% agar gel with 10% FBS in DMEM was prepared and added to the wells of a 6-well culture dish. […] The cells were maintained at 37° C. and allowed to grow for two weeks. The colonies were stained using MTT dye (100 μL per well). Pictures of the colonies were taken using a Leica MZ 16FA inverted microscope (Leica Microsystems) with a 7.4 Slider Camera (Diagnostic Instruments Inc.). The colonies were scored by counting and numbers were normalized as a percentage of colonies formed in DMSO.

Yes = target: T16, Yes (Homo sapiens, UniProt P07947); assay: Kinase profiler assay; type: biochemical; settings: 10 concentrations, 100 μM highest
T16 construct: purchased Millipore UK Limited (Dundee, UK) or Reaction Biology Corp. (Malvern, Pa.)

JAK2 = target: T17, JAK2 (Homo sapiens, UniProt O60674); assay: Kinase profiler assay; type: biochemical; settings: 10 concentrations, 100 μM highest
T17 construct: purchased Millipore UK Limited (Dundee, UK) or Reaction Biology Corp. (Malvern, Pa.)

EGFR = target: T18, EGFR (Homo sapiens, UniProt P00533); assay: Kinase profiler assay; type: biochemical; settings: 10 concentrations, 100 μM highest
T18 construct: purchased Millipore UK Limited (Dundee, UK) or Reaction Biology Corp. (Malvern, Pa.)

[9] = test system: HPDE, HMEC, HH and WI-38 cells; assay: Western blot, cleaved PARP and caspase-3 in normal cells; settings: LLL12 5 μM or 10 μM, 24 hours
Fes = target: T19, Fes (Homo sapiens, UniProt P07332); assay: Kinase profiler assay; type: biochemical; settings: 10 concentrations, 100 μM highest
T19 construct: purchased Millipore UK Limited (Dundee, UK) or Reaction Biology Corp. (Malvern, Pa.)

VEGFR1 = target: T20, VEGFR1 (Homo sapiens, UniProt P17948); assay: Kinase profiler assay; type: biochemical; settings: 10 concentrations, 100 μM highest
T20 construct: purchased Millipore UK Limited (Dundee, UK) and Reaction Biology Corp. (Malvern, Pa.)

Fyn = target: T21, Fyn (Homo sapiens, UniProt P06241); assay: Kinase profiler assay; type: biochemical; settings: 10 concentrations, 100 μM highest
T21 construct: purchased Millipore UK Limited (Dundee, UK) or Reaction Biology Corp. (Malvern, Pa.)
T21 sequence (P06241 whole entry): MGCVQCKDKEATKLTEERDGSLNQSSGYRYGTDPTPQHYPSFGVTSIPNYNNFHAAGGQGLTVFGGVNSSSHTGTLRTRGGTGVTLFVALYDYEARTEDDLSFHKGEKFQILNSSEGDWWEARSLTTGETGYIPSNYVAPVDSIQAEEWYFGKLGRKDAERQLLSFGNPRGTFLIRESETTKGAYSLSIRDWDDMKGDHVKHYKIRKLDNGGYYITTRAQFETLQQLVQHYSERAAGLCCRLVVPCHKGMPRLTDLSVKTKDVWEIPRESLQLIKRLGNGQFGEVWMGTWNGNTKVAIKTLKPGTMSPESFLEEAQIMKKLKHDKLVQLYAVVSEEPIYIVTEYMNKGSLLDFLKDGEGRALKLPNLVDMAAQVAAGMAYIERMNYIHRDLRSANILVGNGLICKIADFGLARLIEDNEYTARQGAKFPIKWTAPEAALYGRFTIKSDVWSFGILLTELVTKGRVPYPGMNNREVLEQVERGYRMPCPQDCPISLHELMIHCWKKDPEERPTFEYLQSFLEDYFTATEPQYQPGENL

PKC-b = target: T22, PKC-b (Homo sapiens, UniProt P05771); assay: Kinase profiler assay; type: biochemical; settings: 10 concentrations, 100 μM highest
T22 construct: purchased Millipore UK Limited (Dundee, UK) or Reaction Biology Corp. (Malvern, Pa.)

C-RAF = target: T23, C-RAF (Homo sapiens, UniProt P04049); assay: Kinase profiler assay; type: biochemical; settings: 10 concentrations, 100 μM highest
T23 construct: purchased Millipore UK Limited (Dundee, UK) or Reaction Biology Corp. (Malvern, Pa.)

TAK1 = target: T24, TAK1 (Homo sapiens, UniProt O43318); assay: Kinase profiler assay; type: biochemical; settings: 10 concentrations, 100 μM highest
T24 construct: purchased Millipore UK Limited (Dundee, UK) or Reaction Biology Corp. (Malvern, Pa.)

Bmx = target: T25, Bmx (Homo sapiens, UniProt P51813); assay: Kinase profiler assay; type: biochemical; settings: 10 concentrations, 100 μM highest
T25 construct: purchased Millipore UK Limited (Dundee, UK) or Reaction Biology Corp. (Malvern, Pa.)
T25 sequence (P51813 whole entry): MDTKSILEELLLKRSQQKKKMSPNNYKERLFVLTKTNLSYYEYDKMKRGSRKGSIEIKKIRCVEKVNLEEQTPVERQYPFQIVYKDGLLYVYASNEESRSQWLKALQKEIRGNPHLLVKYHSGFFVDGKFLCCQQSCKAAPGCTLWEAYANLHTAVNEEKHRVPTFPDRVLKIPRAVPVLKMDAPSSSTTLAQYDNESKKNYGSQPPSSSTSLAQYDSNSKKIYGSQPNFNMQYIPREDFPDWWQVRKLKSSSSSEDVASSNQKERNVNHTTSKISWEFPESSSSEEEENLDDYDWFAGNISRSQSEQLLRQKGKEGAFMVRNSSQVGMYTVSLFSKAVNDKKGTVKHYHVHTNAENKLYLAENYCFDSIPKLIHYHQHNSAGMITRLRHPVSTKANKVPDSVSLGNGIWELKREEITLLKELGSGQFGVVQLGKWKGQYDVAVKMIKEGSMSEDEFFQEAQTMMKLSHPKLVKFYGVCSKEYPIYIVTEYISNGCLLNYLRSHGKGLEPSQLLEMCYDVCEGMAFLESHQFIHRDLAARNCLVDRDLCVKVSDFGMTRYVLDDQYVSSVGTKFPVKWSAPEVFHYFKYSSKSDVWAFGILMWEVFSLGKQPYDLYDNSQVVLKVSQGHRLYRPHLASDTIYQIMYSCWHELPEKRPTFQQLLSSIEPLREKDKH

U87 glioblastoma cells = assay: MTT cell viability assay; type: cell-based, human; settings: 72 hours, 10% FBS, read-out: half-maximal inhibitory concentration (IC50), cell viability
Procedure: as §1, §2

Structure (SMILES): C[C@H](NC(=O)/C(C#N)=C/c1cccc(Br)n1)c1ccccc1 [WP1066]
- IC50 (U373 glioblastoma cells; Homo sapiens, U373 MG): 5.16 µM
- IC50 ([1]; Homo sapiens): 5.12 µM
- IC50 ([2]; Homo sapiens): 2520 nM
- IC50 ([3]; Homo sapiens): 3.31 µM
- IC50 ([4]; Homo sapiens): 7.48 µM

Structure (SMILES): O=[N+]([O-])c1ccc2c(c1)S(=O)(=O)C=C2 [Stattic]
- tumorsphere forming capacity [5]: can inhibit tumorsphere forming capacity
- ALDH^+ subpopulation percentage [6]: decreased the percentage of ALDH^+ subpopulation
- cell viability of the ALDH^+ subpopulation [7]: can inhibit cell viability
- effects on ALDH^− cells (ALDH^− cells): inhibitory effects
- STAT3 phosphorylation in ALDH^+ cells [8]: reduces STAT3 phosphorylation

Structure (SMILES): NS(=O)(=O)c1cccc2c1C(=O)c1cccc(O)c1C2=O [LLL12]
- IC50 (CDK6/CyclinD1): > 100 µM
- IC50 (PAK1): > 100 µM
- IC50 (c-SRC): > 100 µM
- IC50 (Syk): > 100 µM
- IC50 (mTOR): > 100 µM
- IC50 (Met): > 100 µM
- IC50 (P13K (P110b/85a)): > 100 µM
- IC50 (P13K (P110a/85a)): > 100 µM
- IC50 (C-Kit): > 100 µM
- IC50 (CHK1): > 100 µM
- IC50 (PDK1): > 100 µM
- IC50 (AKT1): > 100 µM
- IC50 (Erb B2/H ER2): > 100 µM
- IC50 (CDK4/CyclinD1): 77.9 µM
- IC50 (Pyk2): > 100 µM
- decrease in colony formation compared to the DMSO control (MDA-MB-231 cells): over 95%
- IC50 (Yes): > 100 µM
- IC50 (JAK2): > 100 µM
- IC50 (EGFR): > 100 µM
- cleaved PARP or caspase-3 in cells without elevated STAT3 phosphorylation [9]: did not induce cleaved PARP or caspase-3
- IC50 (Fes): > 100 µM
- IC50 (VEGFR1): > 100 µM
- IC50 (Fyn): > 100 µM
- IC50 (PKC-b): > 100 µM
- IC50 (C-RAF): > 100 µM
- IC50 (TAK1): > 100 µM
- IC50 (Bmx): > 100 µM

Structure (SMILES): Cc1ccc(S(=O)(=O)OCC(=O)Nc2ccc(C(=O)O)c(O)c2)cc1 [S3I-201]
- IC50 (U87 glioblastoma cells): 55.1 µM
- IC50 (U373 glioblastoma cells): 52.5 µM
- IC50 [1]: > 100 µM
- IC50 [2]: > 100000 nM
- IC50 [3]: > 100 µM
- IC50 [4]: > 100 µM
